Broadly, the IC50 is the concentration needed to halve the response being measured.

The test system of one experiment is NF-κB. Description: NF-κB assay: THP1-NF-κB-LUC cells, LPS-stimulated secreted luciferase. It is filed as cell-based. The note with it: THP1-NF-κB-LUC cells; compounds 2 hours before LPS (10 ng/mL) for 18 hours; secreted luciferase; read-out: IC50 (NF-κB assay). The method, boiled down: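 THP1-NF-κB-LUC cells (25k/well) were pretreated with compounds for 2 h, then stimulated with LPS (10 ng/mL) for 18 h. Secreted luciferase was measured and normalized to vehicle, and IC50 was fitted from the concentration series.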

Another experiment has as its system TNF release. Kind of experiment: TNF assay: TNF release from LPS-stimulated human PBMCs (TNF ELISA). It counts as cell-based. Conditions: PBMC; human PBMCs; compounds 2 hours before LPS (10 ng/ml) for 18 hours; supernatant TNF ELISA; read-out: IC50 (TNF assay). The method, boiled down:
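Human PBMCs at 10k/well pretreated with compound dilutions 2 h, then stimulated with LPS (10 ng/mL) for 18 h. TNF in supernatants quantified by ELISA; IC50 for inhibition of TNF release fitted from concentration–response.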
Background: In an ELISA, binding on a coated surface is turned into a signal by an enzyme label.

Bounds are passed on as bounds.

In the case of `CC(C)CC1Oc2c(cc(Br)cc2S(=O)(=O)Nc2ccc(F)c(F)c2)NC1=O` (stereo not drawn) [BC19759], the IC50 with NF-κB is below 0.1 µM; in the experiment with TNF release it was above 10 µM.
On the same counts, the results for `CC(C)CC1Oc2cc(S(=O)(=O)Nc3ccc(F)c(F)c3)c(Br)cc2NC1=O` (stereo not drawn) [BC19760] are below 0.1 µM and above 10 µM.
As to `CC(C)CC1Oc2c(cc(Br)cc2S(=O)(=O)Nc2ccccc2)NC1=O` (stereo not drawn) [BC19761], the results for the IC50 in the experiment with NF-κB and in the experiment with TNF release were 0.1 to 1 µM and above 10 µM, respectively.
On the same counts, the results for `CC(C)CC1Oc2cc(S(=O)(=O)Nc3ccccc3)c(Br)cc2NC1=O` (stereo not drawn) [BC19762] are 0.1 to 1 µM and above 10 µM.
For `CCc1ccc(NS(=O)(=O)c2cc(Br)cc3c2OC(CC(C)C)C(=O)N3)cc1` (stereo not drawn) [BC19763] the same measures were 0.1 to 1 µM and 1 to 10 µM.
On the same counts, the results for `CCc1ccc(NS(=O)(=O)c2cc3c(cc2Br)NC(=O)C(CC(C)C)O3)cc1` (stereo not drawn) [BC19764] are 1 to 10 µM and above 10 µM.
In the case of `CC(C)CC1Oc2c(cc(Br)cc2S(=O)(=O)Nc2ccc(C(C)C)cc2)NC1=O` (stereo not drawn) [BC19765], the IC50 in the experiment with NF-κB was below 0.1 µM; with TNF release it was above 10 µM.
For `CC(C)CC1Oc2cc(S(=O)(=O)Nc3ccc(C(C)C)cc3)c(Br)cc2NC1=O` (stereo not drawn) [BC19766], the concentration for half-maximal inhibition (IC50) in the experiment with NF-κB and with TNF release was 1 to 10 µM each time.
Turning to `Cc1ccc(NS(=O)(=O)c2cc(Br)cc3c2OC(CC(C)C)C(=O)N3)cc1Cl` (stereo not drawn) [BC19767], the half-inhibitory concentration (IC50) was below 0.1 µM with NF-κB and above 10 µM in the experiment with TNF release.
For `Cc1ccc(NS(=O)(=O)c2cc3c(cc2Br)NC(=O)C(CC(C)C)O3)cc1Cl` (stereo not drawn) [BC19768] the same measures were 1 to 10 µM and above 10 µM.
For the molecule `CC(C)CC1Oc2c(cc(Br)cc2S(=O)(=O)Nc2ccc(F)cc2F)NC1=O` (stereo not drawn) [BC19769], the half-inhibitory concentration (IC50) in the experiment with NF-κB is below 0.1 µM; with TNF release it was above 10 µM.
On the same counts, the results for `CC(C)CC1Oc2cc(S(=O)(=O)Nc3ccc(F)cc3F)c(Br)cc2NC1=O` (stereo not drawn) [BC19770] are 0.1 to 1 µM and above 10 µM.
On the same counts, the results for `CCc1cccc(NS(=O)(=O)c2cc(Br)cc3c2OC(CC(C)C)C(=O)N3)c1` (stereo not drawn) [BC19771] are below 0.1 µM and above 10 µM.
For `CCc1cccc(NS(=O)(=O)c2cc3c(cc2Br)NC(=O)C(CC(C)C)O3)c1` (stereo not drawn) [BC19772] the same measures were 0.1 to 1 µM and above 10 µM.
`CC(C)CC1Oc2c(cc(Br)cc2S(=O)(=O)Nc2cccc(F)c2)NC1=O` (stereo not drawn) [BC19773]: the IC50 with NF-κB was below 0.1 µM; in the experiment on TNF release it was above 10 µM.
On the same counts, the results for `CC(C)CC1Oc2cc(S(=O)(=O)Nc3cccc(F)c3)c(Br)cc2NC1=O` (stereo not drawn) [BC19774] are 0.1 to 1 µM and above 10 µM.
With `CC(C)CC1Oc2c(cc(Br)cc2S(=O)(=O)Nc2cccc(Cl)c2)NC1=O` (stereo not drawn) [BC19775], the values for the IC50 in the experiment on NF-κB and with TNF release were below 0.1 µM and above 10 µM, respectively.
For `CC(C)CC1Oc2cc(S(=O)(=O)Nc3cccc(Cl)c3)c(Br)cc2NC1=O` (stereo not drawn) [BC19776] the same measures were 0.1 to 1 µM and above 10 µM.
For the molecule `CC(C)CC1Oc2c(cc(Br)cc2S(=O)(=O)Nc2ccc(F)cc2Cl)NC1=O` (stereo not drawn) [BC19777], the IC50 with NF-κB was below 0.1 µM; in the experiment on TNF release, above 10 µM.
As to `CC(C)CC1Oc2cc(S(=O)(=O)Nc3ccc(F)cc3Cl)c(Br)cc2NC1=O` (stereo not drawn) [BC19778], the IC50 in the experiment on NF-κB and in the experiment with TNF release was above 10 µM each time.
On to `COc1ccc(NS(=O)(=O)c2cc(Br)cc3c2OC(CC(C)C)C(=O)N3)cc1Cl` (stereo not drawn) [BC19779], for which the values for the IC50 with NF-κB and with TNF release were 0.1 to 1 µM and 1 to 10 µM, respectively.
For `COc1ccc(NS(=O)(=O)c2cc3c(cc2Br)NC(=O)C(CC(C)C)O3)cc1Cl` (stereo not drawn) [BC19780], the values for the 50% inhibitory concentration (IC50) with NF-κB and in the experiment with TNF release were 1 to 10 µM and above 10 µM, respectively.
As to `CC(C)CC1Oc2c(cc(Br)cc2S(=O)(=O)Nc2ccc(F)cc2)NC1=O` (stereo not drawn) [BC19781], the concentration for half-maximal inhibition (IC50) is below 0.1 µM in the experiment on NF-κB and 1 to 10 µM with TNF release.
Take `CC(C)CC1Oc2cc(S(=O)(=O)Nc3ccc(F)cc3)c(Br)cc2NC1=O` (stereo not drawn) [BC19782]: the IC50 with NF-κB is 1 to 10 µM; with TNF release it was above 10 µM.
